A short description of one data set: Kinetic solubility. The class given is physicochemical. The protocol:
For kinetic solubility assays, three solutions with differing pH were prepared. Phosphate-buffered saline (PBS) was prepared by mixing KH2PO4 (0.2 g), K2HPO4 (0.115 g), NaCl (0.8 g), and KCl (0.2 mg) in purified water (100 ml). The pH was measured and adjusted using 0.05 M HCl or 0.05 M NaOH to pH 7.4. The pH 2 solution was prepared by adding HCl (37%, 83 μl) to purified water (50 ml). FaSSIF buffer at pH 6.5 was prepared by adding KH2PO4 (2.042 g) and KCl (3.728 g) to purified water (450 ml) and adjusting the pH to 6.5 using 0.05 M HCl or 0.05 M NaOH as required. Simulated intestinal fluid (SIF) (Biorelevant, London, UK) powder (5.6 mg) was then added to the buffer (25 ml) to complete the process.
(i) Kinetic solubility. Duplicate stock solutions of each compound at a concentration of 10 mM in DMSO were prepared in a 96-well plate in PBS at pH 7.4, water at pH 2, and FaSSIF buffer at pH 6.5 to a final concentration of 200 μM ([68]). These three solutions mimic the pH and conditions of the gastrointestinal tract. As the FaSSIF buffer mimics the fasted state in vitro, solubility in this buffer provides a guide as to whether compounds should be dosed with or without meals ([87]). Calibration standards were prepared for each compound in DMSO at 11, 100, and 220 μM. These standards were used to produce a calibration curve required for calculation of the concentration of each compound in the test solutions. […] Plates were agitated on a plate shaker for 2 h (500 rpm, 22°C). Sample analysis was carried out by liquid chromatography-tandem mass spectrometry (LC-MS/MS) analysis as described in “Sample analysis” below. Peak areas were integrated, and calibration curves were constructed and used to calculate the concentrations of each compound in the three buffers.
(§1) Sample extraction. […] The organic layer was then transferred and evaporated under a gentle stream of nitrogen at room temperature for 30 min. The dried samples were reconstituted in mobile phase, and a 5 μl sample was injected for LC-MS/MS analysis. The only exception was the arylurea 10, for which no liquid-liquid extraction was conducted; instead, the 200 μl acetonitrile solution was evaporated under a gentle stream of nitrogen at room temperature. The dried sample was reconstituted in the mobile phase, and a 5 μl sample was injected for LC-MS/MS analysis. The plasma samples for each compound from the in vivo studies were extracted by mixing 350 μl ethyl acetate with 15 μl of plasma sample and 35 μl of universal buffer containing internal standard at pH 8. The samples were vortexed for 1 min and centrifuged for 5 min, and the organic layer was then transferred and evaporated under a gentle stream of nitrogen at room temperature for 30 min. The dried samples were each reconstituted in the mobile phase, and a 5 μl sample was injected for LC-MS/MS analysis.
(§2) LC-MS/MS analysis. For all the artemisinins except the arylurea 10, gradient chromatography was performed on a Phenomenex (Torrance, CA, USA) Luna PFP(2) analytical column (100 Å, 5 μm, 2 by 50 mm) and an AB Sciex API 5500 mass spectrometer which was operated at unit resolution in the multiple reaction monitoring (MRM) mode. The HPLC method used was a gradient method with 5 mM ammonium acetate and 0.1% acetic acid in water as the aqueous phase and a mixture of acetonitrile and methanol (1:1 vol/vol) containing 5% of the aqueous phase as the organic phase ([89]). The arylurea 10 was analyzed using a Phenomenex Gemini NX-C18 (5 μm, 2.1 mm by 50 mm) column with an AB Sciex 3200 QTRAP mass spectrometer operated at unit resolution in the MRM mode. The HPLC method used was a gradient method with 5 mM ammonium acetate and 0.1% acetic acid in water as the aqueous phase and a mixture of acetonitrile and methanol (1:1 vol/vol). The transitions of the molecular ions were monitored, as listed in Table S8 in the supporting information. The calibration range was between 0.002 μg/ml and 6.250 μg/ml.

Data set [1] in a line: Pharmacokinetics in mice, oral administration. In kind it is in vivo, male C57/BL6 mice. The conditions noted are these: for bioavailability / Cmax / Tmax: male, C57/BL6, mouse, plasma; for bioavailability: 50 mg/kg; for bioavailability / F: oral bioavailability, p.o. 50 mg/kg vs i.v. 10 mg/kg; for Cmax / Tmax / AUC: p.o. 50 mg/kg, parent; for AUC: 0 h to last. On the procedure: (i) Animals. Healthy male C57/BL6 mice each weighing approximately 25 g were used. The mice maintained at the University of Cape Town animal facility were housed in 27 by 21 by 18 cm cages, under controlled environmental conditions at 22 ± 2°C and a 12-h light/dark cycle. Humidity was monitored and ranged between 55 and 70%. Food and water were available ad libitum. Mice were acclimatized to their environment for 7 days before experiments were initiated.
(ii) Oral drug administration. Each of artemether, the amino-artemisinins 5 to 10, and 11-aza-artemisinin 11 (12.5 mg) was dissolved in 0.2 ml DMSO, to which 1.8 ml 0.5% (wt/vol) HPMC in water was then added. Compounds were administered orally via gavage at a dose of 50 mg/kg (n = 3). Dosing volumes were calculated based on the weight of each mouse in the respective group. The dosing volumes ranged between 160 μl and 200 μl, ensuring that the dose remained at 50 mg/kg. Blood samples for amino-artemisinins 5 to 8 and 10 were collected via tail-bleeding predose and at 0.08, 0.25, 0.5, 1, 2, and 4 h. Blood samples for the phenylurea 9 and 11-aza-artemisinin 11 were collected at 0.08, 0.5, 1, 2, 4, 8, and 24 h postdose. Samples were placed in 0.5 ml lithium heparin micro vials to prevent blood coagulation. […] The samples were immediately centrifuged at 5,590 × g for 5 min and the plasma was transferred to new microvials. The plasma samples were stored at −80°C.
as §1, §2

The subject of data set [2] is early stage (>90% stage I-III) P. falciparum NF54 gametocytes. The conditions noted are these: cited from earlier work.
Setting [3] is: FaSSIF buffer, 22 °C, pH 6.5, fassif, kinetic from dmso stock, read-out: Solubility FaSSIF pH 6.5.
Setting [4] is: PBS, 22 °C, pH 7.4, aqueous buffer, kinetic from dmso stock, read-out: Solubility pH 7.4.
[5] abbreviates: pH 2 solution (HCl in water), 22 °C, pH 2, kinetic from dmso stock, read-out: Solubility pH 2.
The mark [6] stands for this setting: metabolite formed from p.o. artemiside 5, 50 mg/kg.
The mark [7] stands for this setting: Table S3, ± SEM, ref 1 and 2 (supplement; main text 47, 48), read-out: Early Stage (EG, Luc 48 h) IC50.
Setting [8] is: Table S4, ± SEM, n = 3, ref 4 (supplement; main text 62), read-out: Early stage IC50 (Luciferase 48 h).

Converted amounts (≈) assume the structure as drawn. Read-outs that look alike come from different tables or passages of the source.

`C[C@H]1[C@H](N2C=CS(=O)(=O)CC2)O[C@@H]2O[C@@]3(C)CC[C@H]4[C@H](C)CC[C@@H]1[C@@]24OO3` [M1 12]: the solubility (as a rule, the dissolved amount per volume that the medium holds) at 2 h in “Kinetic solubility” (setting [3]) was 57.6 µM (≈ 23 µg/mL); in “Kinetic solubility” (setting [4]), 74.5 µM (≈ 29.8 µg/mL); in the data set “Kinetic solubility” (setting [5]) it was above 150 µM. For the same compound, the AUC of metabolite was found to be 20.8 ± 8 min/µmol/L in data set [1] (setting [6]) and 173.3 ± 51.7 min/µmol/L in data set [1] (metabolite formed from p.o. artemisone 6, 50 mg/kg).

In the case of `C[C@H]1[C@H](N2CCSCC2)O[C@@H]2O[C@@]3(C)CC[C@H]4[C@H](C)CC[C@@H]1[C@@]24OO3` [Artemiside 5, artemiside], the solubility at 2 h in “Kinetic solubility” (setting [3]) is below 5 µM. The solubility at 2 h in the data set “Kinetic solubility” (setting [4]) is below 5 µM. In “Kinetic solubility” (setting [5]), the solubility at 2 h is 12.4 µM (≈ 4.58 µg/mL). Further, in data set [1] (po), the bioavailability (as a rule, dose-corrected exposure relative to a reference, in per cent) came to 1 ± 0.2%; the Cmax (as a rule, the maximum level reached in the sampled fluid or tissue) was determined as 100 ± 10 nM; the time of peak concentration (Tmax) (as a rule, the time from dosing to the highest level) was determined as 60 ± 54 min. Besides, in data set [1], the AUC is 9.5 ± 2.5 min/µmol/L. Moreover, the IC50 (usually the concentration at which inhibition is half-maximal) in data set [2] (setting [7]) is 16.4 ± 1 nM.

Take `C[C@H]1[C@H](N2CCS(=O)(=O)CC2)O[C@@H]2O[C@@]3(C)CC[C@H]4[C@H](C)CC[C@@H]1[C@@]24OO3` [Artemisone 6, artemisone]: the solubility at 2 h in “Kinetic solubility” (setting [3]) came to 74.4 µM (≈ 29.9 µg/mL). For the same compound, in “Kinetic solubility” (setting [4]), the solubility at 2 h is 120 µM (≈ 48.3 µg/mL). In addition, the solubility at 2 h in “Kinetic solubility” (setting [5]) worked out at 73.7 µM (≈ 29.6 µg/mL). Moreover, in data set [1] (po), the bioavailability was 32%, the maximum concentration (Cmax) was determined as 8000 ± 800 nM and the time of peak concentration (Tmax) is 18 ± 6 min. Also, the AUC of metabolite in data set [1] (setting [6]) came out at 101.5 ± 49 min/µmol/L. In addition, in data set [1], the F is 34 ± 7.5% and the AUC stood at 922.7 ± 348 min/µmol/L. Moreover, the IC50 in data set [2] (setting [7]) was 1.94 nM.

Turning to `CO[C@H]1O[C@@H]2O[C@@]3(C)CC[C@H]4[C@H](C)CC[C@@H]([C@H]1C)[C@@]24OO3` [Artemether 3, artemether], in data set [1] (po), the bioavailability was determined as 2 ± 0.6%, the highest concentration (Cmax) amounted to 600 ± 200 nM and the time of peak concentration (Tmax) was found to be 6 min. For the same compound, the AUC in data set [1] stood at 32.3 ± 20 min/µmol/L. The half-maximal inhibitory concentration (IC50) in data set [2] (setting [8]) was 37.7 ± 2.08 nM.

Turning to `C[C@H]1[C@H](NS(N)(=O)=O)O[C@@H]2O[C@@]3(C)CC[C@H]4[C@H](C)CC[C@@H]1[C@@]24OO3` [Sulfamide 7], the solubility at 2 h in the data set “Kinetic solubility” (setting [3]) was below 5 µM. The solubility at 2 h in “Kinetic solubility” (setting [4]) was found to be 11.5 µM (≈ 4.17 µg/mL). Besides, in “Kinetic solubility” (setting [5]), the solubility at 2 h was above 150 µM. For the same compound, in data set [1] (po), the bioavailability stood at 59%, the highest concentration (Cmax) came out at 21700 ± 1200 nM and the time to peak (Tmax) is 36 ± 12 min. For the same compound, in data set [1], the F came out at 59.3 ± 11.6% and the AUC is reported as 2,562.3 ± 499 min/μmol/liter. Moreover, the concentration for half-maximal inhibition (IC50) in data set [2] (setting [7]) is 15 ± 2 nM.

Turning to `C[C@@H]1CC[C@H]2[C@@H](C)C(=O)N[C@@H]3O[C@@]4(C)CC[C@@H]1[C@]32OO4` [11-Aza-artemisinin 11, 11-aza-artemisinin], the solubility at 2 h is above 150 µM in the data set “Kinetic solubility” (setting [3]); 144 µM (≈ 40.6 µg/mL) in the data set “Kinetic solubility” (setting [4]); above 144 µM in “Kinetic solubility” (pH 2, FaSSIF pH 6.5 and pH 7.4 together, read-out: Solubility in the three aqueous solutions); above 150 µM in “Kinetic solubility” (setting [5]). The bioavailability in data set [1] (oral) was determined as 7%; in data set [1] (po), 14%. In addition, in data set [1] (po), the Cmax is 2600 ± 10 nM. The Tmax in data set [1] (po) worked out at 30 min. The compound also yielded a F in data set [1] of 7.15 ± 0.3%. Moreover, the AUC in data set [1] amounted to 154.9 ± 10 min/µmol/L. For the same compound, in data set [2] (setting [8]), the IC50 is 170 nM.

In the case of `C[C@H]1[C@@H](O)O[C@@H]2O[C@@]3(C)CC[C@H]4[C@H](C)CC[C@@H]1[C@@]24OO3` [DHA 2, dihydroartemisinin], the AUC of metabolite in data set [1] (metabolite formed from p.o. artemether 3, 50 mg/kg) came to 77 ± 12 min/µmol/L. Also, in data set [2] (setting [7]), the half-inhibitory concentration (IC50) was 43 ± 3.9 nM.

For the compound `C[C@H]1[C@H](N2CCN(C(=O)Nc3ccc(F)cc3)CC2)O[C@@H]2O[C@@]3(C)CC[C@H]4[C@H](C)CC[C@@H]1[C@@]24OO3` [Arylurea 10], the solubility at 2 h in the data set “Kinetic solubility” (setting [3]) was 24 µM (≈ 11.8 µg/mL). In addition, in “Kinetic solubility” (setting [4]), the solubility at 2 h is 27 µM (≈ 13.2 µg/mL). The solubility at 2 h in “Kinetic solubility” (setting [5]) stood at 10 µM (≈ 4.9 µg/mL). Also, in data set [1] (po), the bioavailability was determined as 17.5 ± 3.1%, the Cmax came out at 2300 ± 300 nM and the Tmax is 30 min. Moreover, the AUC in data set [1] was 276.5 ± 48.4 min/µmol/L. For the same compound, in data set [2] (setting [7]), the IC50 is 36 ± 10.2 nM.

The record behind these values is PMC8284440, “Toward New Transmission-Blocking Combination Therapies: Pharmacokinetics of 10-Amino-Artemisinins and 11-Aza-Artemisinin and Comparison with Dihydroartemisinin and Artemether” (Antimicrobial Agents and Chemotherapy, 2021).
